Results on 31 compounds are retold here after patent US9555039B2, “Piperidine derivatives and compositions for the inhibition of nicotinamide phosphoribosyltransferase (NAMPT)” (Forma TM, LLC., priority 2011, dated 2017).

Where two headings read alike, the source gives them in different places.

Test [1] addresses T1, Recombinant His-tagged NAMPT (Homo sapiens, UniProt P43490).
T1 construct: His; host or cells: E. coli
Description: Biochemical inhibition assay: NAMPT enzymatic reaction, NMN quantified by mass spectrometry. Conditions: 33 nM NAMPT, 1 μM NAM, 100 μM PRPP, 30 minutes at room temperature, read-out: Biochem IC50. The method, boiled down: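 Reaction 30 min at room temperature with 1 μM NAM, 100 μM PRPP, 2.5 mM ATP (final), quenched with formic acid. NMN quantified by RapidFire electrospray MS, normalized to L-cystathionine; IC50 from percent inhibition versus DMSO.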

A further test has as its system A2780 cells. Description: In-vitro cell proliferation assay (SRB, 72 hours). The test is classed as cell-based. Conditions: sulforhodamine B (SRB) assay. The method, boiled down: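 Viable cells measured by TCA fixation and SRB staining, absorbance 570 nm; % inhibition vs DMSO control after media-only background subtraction, interpolated between two bracketing concentrations.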
(Sulforhodamine B stains cellular protein and so reports cell mass.)

T1 sequence (P43490 whole entry): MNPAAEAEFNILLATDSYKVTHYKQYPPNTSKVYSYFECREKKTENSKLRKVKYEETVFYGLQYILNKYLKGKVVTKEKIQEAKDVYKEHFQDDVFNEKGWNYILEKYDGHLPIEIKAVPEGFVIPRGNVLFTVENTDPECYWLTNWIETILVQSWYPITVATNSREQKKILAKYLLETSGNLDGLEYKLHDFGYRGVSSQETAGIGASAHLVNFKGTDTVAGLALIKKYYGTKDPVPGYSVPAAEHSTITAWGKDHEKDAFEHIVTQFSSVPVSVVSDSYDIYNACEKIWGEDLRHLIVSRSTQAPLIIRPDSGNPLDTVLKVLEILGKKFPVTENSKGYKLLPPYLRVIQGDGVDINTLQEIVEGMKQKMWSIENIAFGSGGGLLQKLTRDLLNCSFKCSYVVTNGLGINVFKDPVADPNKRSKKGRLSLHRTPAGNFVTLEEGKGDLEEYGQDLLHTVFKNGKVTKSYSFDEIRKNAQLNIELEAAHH

For `CC(C)c1ccc(C(=O)N2CCC(CCCCNC(=O)c3cc4ccncc4s3)CC2)nc1` [N-[4-(1-{[5-(propan-2-yl)pyridin-2-yl]carbonyl}piperidin-4-yl)butyl]thieno[2,3-c]pyridine-2-carboxamide], the IC50 (commonly the point on the concentration scale where inhibition reaches its midpoint) was 0.0898 µM in test [1] (2.5 mM ATP) and 0.1 to 1 µM in the test with A2780 cells (Homo sapiens).

In the case of `O=C(NCCCCC1CCN(S(=O)(=O)c2ccc(OC(F)(F)F)cc2)CC1)c1cc2cnccc2[nH]1` [N-[4-(1-{[4-(trifluoromethoxy)benzene]sulfonyl}piperidin-4-yl)butyl]-1H-pyrrolo[3,2-c]pyridine-2-carboxamide], the values for the IC50 (in test [1] ([…] ATP); in the test with A2780 cells) were 0.076 µM and 0.0272 µM, respectively.

With `COc1cccc(C(=O)N2CCC(CCCCNC(=O)c3cc4ccncc4s3)CC2)c1` [N-(4-{1-[(3-methoxyphenyl)carbonyl]piperidin-4-yl}butyl)thieno[2,3-c]pyridine-2-carboxamide], the IC50 came out at 0.0261 µM in test [1] (2.5 mM ATP) and 0.011 µM in the test on A2780 cells (Homo sapiens).

As to `COc1ccc(C(=O)N2CCC(CCCCNC(=O)c3cc4cnccc4[nH]3)CC2)cc1` [N-(4-{1-[(4-methoxyphenyl)carbonyl]piperidin-4-yl}butyl)-1H-pyrrolo[3,2-c]pyridine-2-carboxamide], the IC50 in test [1] (2.5 mM ATP) worked out at 0.0797 µM; with A2780 cells (Homo sapiens) it was 0.0163 µM.

For `Cc1ccc(F)cc1C(=O)N1CCC(CCCCNC(=O)c2cc3cnccc3[nH]2)CC1` [N-(4-{1-[(5-fluoro-2-methylphenyl)carbonyl]piperidin-4-yl}butyl)-1H-pyrrolo[3,2-c]pyridine-2-carboxamide], the IC50 came out at 0.0142 µM in test [1] (2.5 mM ATP) and 0.0023 µM in the test on A2780 cells (Homo sapiens).

With `O=C(NCCCCC1CCN(C(=O)c2cc(F)ccc2F)CC1)c1ccc2nccn2c1` [N-(4-{1-[(2,5-difluorophenyl)carbonyl]piperidin-4-yl}butyl)imidazo[1,2-a]pyridine-6-carboxamide], the IC50 (in test [1] (2.5 mM ATP); with A2780 cells (Homo sapiens)) was 0.005 µM throughout.

Regarding `Cc1ncccc1C(=O)N1CCC(CCCCNC(=O)c2ccc3nccn3c2)CC1` [N-(4-{1-[(2-methylpyridin-3-yl)carbonyl]piperidin-4-yl}butyl)imidazo[1,2-a]pyridine-6-carboxamide], the IC50 in test [1] (2.5 mM ATP) is 0.0098 µM; in the test on A2780 cells (Homo sapiens), 0.0018 µM.

For the compound `O=C(NCCCCC1CCN(C(=O)c2ccc3ncsc3c2)CC1)c1cc2ccncc2s1` [N-(4-{1-[(1,3-benzothiazol-6-yl)carbonyl]piperidin-4-yl}butyl)thieno[2,3-c]pyridine-2-carboxamide], the IC50 worked out at 0.0323 µM in test [1] (2.5 mM ATP) and 0.0354 µM in the test with A2780 cells (Homo sapiens).

Consider `O=C(NCCCCC1CCN(C(=O)C2CCCCC2)CC1)c1ccc2nccn2c1` [N-[4-(1-cyclohexanecarbonylpiperidin-4-yl)butyl]imidazo[1,2-a]pyridine-6-carboxamide], for which the results for the IC50 (in test [1] (2.5 mM ATP); with A2780 cells (Homo sapiens)) were 0.0181 µM and 0.0009 µM, respectively.

`O=C(NCCCCC1CCN(C(=O)c2ccc(F)cc2F)CC1)c1cc2cnccc2[nH]1` [N-(4-{1-[(2,4-difluorophenyl)carbonyl]piperidin-4-yl}butyl)-1H-pyrrolo[3,2-c]pyridine-2-carboxamide]: the values for the IC50 (in test [1] (2.5 mM ATP); with A2780 cells (Homo sapiens)) were 0.0393 µM and 0.0081 µM, respectively.

In the case of `O=C(NCCCCC1CCN(C(=O)c2ccc3c(c2)OCO3)CC1)c1cc2ccncc2s1` [N-(4-{1-[(2H-1,3-benzodioxol-5-yl)carbonyl]piperidin-4-yl}butyl)thieno[2,3-c]pyridine-2-carboxamide], the IC50 in test [1] (2.5 mM ATP) is 0.0211 µM; in the test on A2780 cells (Homo sapiens), 0.1 to 1 µM.

In the case of `COc1ccccc1C(=O)N1CCC(CCCCNC(=O)c2cc3cnccc3[nH]2)CC1` [N-(4-{1-[(2-methoxyphenyl)carbonyl]piperidin-4-yl}butyl)-1H-pyrrolo[3,2-c]pyridine-2-carboxamide], the IC50 in test [1] (2.5 mM ATP) is 0.0144 µM; with A2780 cells (Homo sapiens), 0.0019 µM.

Regarding `O=C(NCCCCC1CCN(C(=O)c2cccc(F)c2F)CC1)c1ccc2nccn2c1` [N-(4-{1-[(2,3-difluorophenyl)carbonyl]piperidin-4-yl}butyl)imidazo[1,2-a]pyridine-6-carboxamide], the IC50 in test [1] (2.5 mM ATP) was 0.0079 µM; in the test on A2780 cells (Homo sapiens) it was 0.0101 µM.

On to `O=C(NCCCCC1CCN(C(=O)c2cc3cc(F)ccc3[nH]2)CC1)c1cc2ccncc2s1` [N-(4-{1-[(5-fluoro-1H-indol-2-yl)carbonyl]piperidin-4-yl}butyl)thieno[2,3-c]pyridine-2-carboxamide], for which the IC50 was 0.0304 µM in test [1] (2.5 mM ATP) and 1 to 10 µM with A2780 cells (Homo sapiens).

Regarding `O=C(NCCCCC1CCN(C(=O)c2cc3cnccc3[nH]2)CC1)c1cc2ccncc2s1` [N-{4-[1-({1H-pyrrolo[3,2-c]pyridin-2-yl}carbonyl)piperidin-4-yl]butyl}thieno[2,3-c]pyridine-2-carboxamide], the IC50 worked out at 0.0069 µM in test [1] (2.5 mM ATP) and 0.0137 µM with A2780 cells (Homo sapiens).

Consider `O=C(NCCCOC1CCN(C(=O)c2ccccc2F)CC1)c1cc2cnccc2[nH]1` [N-(3-((1-(2-fluorobenzoyl)piperidin-4-yl)oxy)propyl)-1H-pyrrolo[3,2-c]pyridine-2-carboxamide], for which the IC50 was 0.035 µM in test [1] (2.5 mM ATP) and 0.177 µM with A2780 cells (Homo sapiens).

Consider `CCOc1cccc(C(=O)N2CCC(CCCCNC(=O)c3cc4ccncc4s3)CC2)c1` [N-(4-{1-[(3-ethoxyphenyl)carbonyl]piperidin-4-yl}butyl)thieno[2,3-c]pyridine-2-carboxamide], for which the IC50 is 0.0391 µM in test [1] (2.5 mM ATP) and 0.0765 µM in the test with A2780 cells (Homo sapiens).

For `O=C(NCCCCC1CCN(C(=O)c2c(F)cccc2F)CC1)c1cc2cnccc2[nH]1` [N-(4-{1-[(2,6-difluorophenyl)carbonyl]piperidin-4-yl}butyl)-1H-pyrrolo[3,2-c]pyridine-2-carboxamide], the IC50 came to 0.0073 µM in test [1] (2.5 mM ATP) and 0.0014 µM with A2780 cells (Homo sapiens).

For `O=C(NCCC1CCN(C(=O)c2ccccc2)CC1)c1cc2cnccc2[nH]1` [N-[2-(1-benzoylpiperidin-4-yl)ethyl]-1H-pyrrolo[3,2-c]pyridine-2-carboxamide], the IC50 worked out at 10 µM in test [1] (2.5 mM ATP) and 20 µM in the test with A2780 cells (Homo sapiens).

Consider `O=C(NCCCCC1CCN(C(=O)C2CCCCC2)CC1)c1cc2cnccc2[nH]1` [N-[4-(1-cyclohexanecarbonylpiperidin-4-yl)butyl]-1H-pyrrolo[3,2-c]pyridine-2-carboxamide], for which the IC50 is 0.18 µM in test [1] (2.5 mM ATP) and 0.0155 µM in the test with A2780 cells (Homo sapiens).

For the compound `O=C(NCCCCC1CCN(S(=O)(=O)c2ccc(Cl)cc2)CC1)c1cc2cnccc2[nH]1` [N-(4-{1-[(4-chlorobenzene)sulfonyl]piperidin-4-yl}butyl)-1H-pyrrolo[3,2-c]pyridine-2-carboxamide], the IC50 stood at 0.0499 µM in test [1] (2.5 mM ATP) and 0.0275 µM in the test with A2780 cells (Homo sapiens).

Take `O=C(NCCCCC1CCN(C(=O)c2cccc(F)c2F)CC1)c1cc2cnccc2[nH]1` [N-(4-{1-[(2,3-difluorophenyl)carbonyl]piperidin-4-yl}butyl)-1H-pyrrolo[3,2-c]pyridine-2-carboxamide]: the figures for the IC50 (in test [1] (2.5 mM ATP); with A2780 cells (Homo sapiens)) were 0.0121 µM and 0.0034 µM, respectively.

Turning to `O=C(NCCCCC1CCN(C(=O)c2ccc3c(c2)OCO3)CC1)c1cc2cnccc2[nH]1` [N-(4-{1-[(2H-1,3-benzodioxol-5-yl)carbonyl]piperidin-4-yl}butyl)-1H-pyrrolo[3,2-c]pyridine-2-carboxamide], the IC50 in test [1] (2.5 mM ATP) stood at 0.0783 µM; in the test with A2780 cells (Homo sapiens), 0.014 µM.

For the compound `Cc1ncsc1C(=O)N1CCC(CCCCNC(=O)c2cc3cnccc3[nH]2)CC1` [N-(4-{1-[(4-methyl-1,3-thiazol-5-yl)carbonyl]piperidin-4-yl}butyl)-1H-pyrrolo[3,2-c]pyridine-2-carboxamide], the IC50 was determined as 0.0054 µM in test [1] ([…] ATP) and 0.001 µM in the test with A2780 cells (Homo sapiens).

In the case of `O=C(NCCCCC1CCN(C(=O)c2ccc(C(F)(F)F)cn2)CC1)c1cc2ccncc2s1` [N-[4-(1-{[5-(trifluoromethyl)pyridin-2-yl]carbonyl}piperidin-4-yl)butyl]thieno[2,3-c]pyridine-2-carboxamide], the figures for the IC50 (in test [1] (2.5 mM ATP); with A2780 cells (Homo sapiens)) were 0.0918 µM and 0.1 to 1 µM, respectively.

For `COc1ccccc1C(=O)N1CCC(CCCCNC(=O)c2cc3ccncc3s2)CC1` [N-(4-{1-[(2-methoxyphenyl)carbonyl]piperidin-4-yl}butyl)thieno[2,3-c]pyridine-2-carboxamide], the IC50 in test [1] (2.5 mM ATP) was 0.0077 µM; in the test on A2780 cells (Homo sapiens), 0.0033 µM.

Regarding `CC(=O)N1CCC(C(=O)N2CCC(CCCCNC(=O)c3cc4cnccc4[nH]3)CC2)CC1` [N-(4-{1-[(1-acetylpiperidin-4-yl)carbonyl]piperidin-4-yl}butyl)-1H-pyrrolo[3,2-c]pyridine-2-carboxamide], the IC50 is 0.134 µM in test [1] (2.5 mM ATP) and 0.0239 µM in the test with A2780 cells (Homo sapiens).

For the compound `O=C(NCCCCC1CCN(C(=O)c2csc(C(F)(F)F)n2)CC1)c1cc2ccncc2s1` [N-[4-(1-{[2-(trifluoromethyl)-1,3-thiazol-4-yl]carbonyl}piperidin-4-yl)butyl]thieno[2,3-c]pyridine-2-carboxamide], the IC50 in test [1] (2.5 mM ATP) was 0.094 µM; with A2780 cells (Homo sapiens), 0.1 to 1 µM.

For `Cc1ccc(C(=O)N2CCC(CCCCNC(=O)c3cc4cnccc4[nH]3)CC2)cc1F` [N-(4-{1-[(3-fluoro-4-methylphenyl)carbonyl]piperidin-4-yl}butyl)-1H-pyrrolo[3,2-c]pyridine-2-carboxamide], the IC50 in test [1] (2.5 mM ATP) came out at 0.0771 µM; with A2780 cells (Homo sapiens) it was 0.0224 µM.

Consider `O=C(NCCCCC1CCN(C(=O)c2cc(Cl)cc(Cl)c2)CC1)c1ccc2nccn2c1` [N-(4-{1-[(3,5-dichlorophenyl)carbonyl]piperidin-4-yl}butyl)imidazo[1,2-a]pyridine-6-carboxamide], for which the IC50 in test [1] (2.5 mM ATP) was 0.0616 µM; in the test with A2780 cells (Homo sapiens) it was 0.0329 µM.

As to `CC(=O)N1CCC(C(=O)N2CCC(CCCCNC(=O)c3ccc4nccn4c3)CC2)CC1` [N-(4-{1-[(1-acetylpiperidin-4-yl)carbonyl]piperidin-4-yl}butyl)imidazo[1,2-a]pyridine-6-carboxamide], the IC50 is 0.0396 µM in test [1] (2.5 mM ATP) and 0.0278 µM in the test with A2780 cells (Homo sapiens).
